Test results published in ChEMBL document CHEMBL1121379, “Some short-chain N6-substituted adenosine analogues with antitumor properties” (1980).
Several values for one entry are separate records, joined by “and”; a condition that tells them apart may be missing. Equal values may be shown once.

Key:
Type in all cases: functional
[1] = Concentration required for 50% growth inhibition of the following cell lines Carcinoma TA-3 cells; settings: Mus musculus, TA3; read-out: ID50 (the source's name)
[2] = Concentration required for 50% growth inhibition of the following cell lines human fibro blast cells; settings: read-out: ID50 (the source's name)
Burkitts lymphoma cell = assay: Concentration required for 50% growth inhibition of the following cell lines human burkitt lymphoma cells; settings: read-out: ID50 (the source's name)
L1210 = assay: Concentration required for 50% growth inhibition of the following cell lines Leukemia L-1210 cells; settings: Mus musculus, read-out: ID50 (the source's name)
MCF7 = assay: Concentration required for 50% growth inhibition of human breast tumor cells MCF-7 human breast carcinoma cells; settings: read-out: ID50 (the source's name)
Mus musculus [3] = assay: antitumor activity against mouse leukemia, L-1210(DBA/2 Ha Mice) % increase in life span at 3.12 mg/kg of dose per day; settings: L1210, dose 3.12 mg/kg
Mus musculus [4] = assay: Antitumor activity against slow growing spontaneous mammary tumors in the DBA/2 Ha-DD mouse % increased in life span 3.8 mg/kg/day x 5 melphalan + 50 mg/kg/day
Mus musculus [5] = assay: Antitumor activity against slow growing spontaneous mammary tumors in the DBA/2 Ha-DD mouse % increased in life span 3.8 mg/kg/day x 5 melphalan + 50 mg/kg/day compound
Mus musculus [6] = assay: Antitumor activity against slow growing spontaneous mammary tumors in the DBA/2 Ha-DD mouse number of days reacquired fro tumor growth 3.8 mg/kg/day x 5 melphalan once in 5 days; set-up: unit: days
Mus musculus [7] = assay: Antitumor activity against mouse leukemia, L-1210(DBA/2 Ha Mice) mean life span ( days) of the mouse after the dosage at 1.56 mg/kg of dose per day
Mus musculus [8] = assay: Antitumor activity against slow growing spontaneous mammary tumors in the DBA/2 Ha-DD mouse mean life span in days at 50 mg/kg give 5 times once in 5 days
Mus musculus [9] = species on record: Mus musculus; assay: Concentration required for 50% growth inhibition of the following cell lines mouse fibro blasts; settings: read-out: ID50 (the source's name)
[10] = Concentration required for 50% growth inhibition of human breast tumor cells SW-613 human breast adenocarcinoma cells; settings: SW613, read-out: ID50 (the source's name)
[11] = Concentration required for 50% growth inhibition of the following cell lines sarcoma S-180 cells; settings: Mus musculus, read-out: ID50 (the source's name)
[12] = Concentration required for 50% growth inhibition of the following cell lines human bladder carcinoma cells; settings: read-out: ID50 (the source's name)
Mus musculus [13] = assay: Antitumor activity against mouse leukemia, L-1210(DBA/2 Ha Mice) % increase in life span at 3.12 mg/kg of dose per day; settings: for ILS at 3.12 mg/kg: Mus musculus, L1210, dose 3.12 mg/kg
HeLa = assay: Concentration required for 50% growth inhibition of the following cell lines Hela cells; settings: Homo sapiens, read-out: ID50 (the source's name)
Mus musculus [14] = assay: Antitumor activity against mouse leukemia, L-1210(DBA/2 Ha Mice) mean life span (days) of the mouse after fractionated dosage(dose divided in two halves and administered in two daily injections) at 6.25 mg/kg of dose per day

Row | SMILES | IC50 [1] | IC50 [2] | IC50 (Burkitts lymphoma cell) | IC50 (L1210) | IC50 (MCF7) | ILS (Mus musculus [5]) | Tumor half growth (Mus musculus [6]) | Life span (Mus musculus [8]; 50 mg/kg) | IC50 (Mus musculus [9]) | IC50 [10] | IC50 [11] | IC50 [12] | Life span (Mus musculus [7]) | ILS at 3.12 mg/kg (Mus musculus [13]) | further results
1 | C=CCNc1ncnc2c1ncn2[C@@H]1O[C@H](CO)[C@@H](O)[C@H]1O | 3 µM | 2.7 µM | 2.3 µM | 12 µM | 1.4 µM | 82.5% and 38.7% | 16 and 26 and 30 | 46.6 and 48 | 14 µM | 50 µM | 20 µM | 7.5 µM | – | – | ILS at 3.12 mg/kg (Mus musculus [3]): 8%; ILS (Mus musculus [4]): 42.8%; Life span (Mus musculus [7]; 1.56 mg/kg): 8.3 and 10
2 | CC(C)Nc1ncnc2c1ncn2[C@@H]1O[C@H](CO)[C@@H](O)[C@H]1O | 13 µM | 6.5 µM | 27 µM | 19 µM | 6.3 µM | 25.5% and 60% and 63.1% | 17 and 24 | 63.3 and 54.8 and 23.6 | 20 µM | 150 µM | 30 µM | 11 µM | 7.3 | – | ILS (Mus musculus [13]; dose 3.12 mg/kg): 14.7% and 17.4% and 37.4%
3 | C=C(C)CNc1ncnc2c1ncn2C1O[C@H](CO)[C@@H](O)[C@H]1O (stereo partly drawn) | 18 µM | 1.5 µM | 11 µM | 19 µM | – | 19% | 15 | – | 25 µM | 4 µM | – | 9 µM | 30 | – | –
4 | C#CCNc1ncnc2c1ncn2C1O[C@H](CO)[C@@H](O)[C@H]1O (stereo partly drawn) | 2.5 µM | 2.8 µM | 8.3 µM | 1 µM | 1.6 µM | 60% | 18 | – | 3.1 µM | – | – | 3.8 µM | 8.2 | 20% | IC50 (HeLa): 3.5 µM
5 | OC[C@H]1O[C@@H](n2cnc3c(NCc4ccccc4)ncnc32)[C@H](O)[C@@H]1O [N6-BENZYLADENOSINE] | 14 µM | – | 11 µM | 8.5 µM | 22 µM | 10.9% and 26% | 20 and 21 | – | – | 4 µM | 45 µM | – | 9.7 | 41% | Life span (Mus musculus [14]): 38.8; Life span (Mus musculus [8]): 62.6
